Results from patent US4145444A, “Anti-inflammatory agent of benzoyl derivative” (priority 1977, dated 1979).

System: thrombus
Assay: Inhibiting effect on thrombosis (by-pass between left juglar vein and right carotid artery, silk thread)
Assay type: in vivo, SD type male rates
Details: Rattus norvegicus; 100 mg/kg oral, 5 hours before first blood circulation, rats; read-out: Thrombosis inh.: thrombosis inhibition rate
Procedure, shortened: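 Arteriovenous shunt with silk thread and heparin saline, run as three successive 15-min circulations, with thrombus wet weight measured on the thread each time. Compound given orally in carboxymethyl cellulose suspension at 100 mg/kg 5 h before the first circulation. Inhibition rate derived against control circulations.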

SMILES	inhibition in vivo at 100 mg/kg
CCCc1ccc(C(=O)c2ccc(CCC)cc2)cc1 [compound 110]	18.6%
CCCCCc1ccc(C(=O)c2ccc(CCCCC)cc2)cc1 [compound 111]	17.3%
CCCc1ccc(C(=O)c2ccc(CC)cc2)cc1 [compound 112]	15.5%
O=C(c1ccccc1)c1ccccc1C(=O)c1ccccc1 [compound 113]	30.4%
O=C(c1ccc(F)cc1)c1ccc(F)cc1 [compound 114]	31.1%
O=C(c1ccc(F)cc1)c1ccccc1Cl [compound 115]	27.5%

System: adjuvant-induced arthritis
Assay: Chronic inflammation (adjuvant-induced arthritis): reduction in edema of the hind paws
Assay type: in vivo, female rats of Sprague Drawley strain
Details: 50 mg/kg/day oral, 6 days
Experimental: (§1) The effects of 1 4-n-butyl benzophenone and 2 4-n-butyl-2'-fluorobenzophenone against adjuvant-induced arthritis were studied.
(§2) For the study, adult female rats of Sprague Drawley strain weighing approximately 200 g were used. All rats received 0.1 ml of a suspension of dry heat-killed tubercle bacilli (human strains, commercial product of Difco Co.) in liquid paraffin (5 mg/ml, w/v) by a single intradermal injection into the tail.
The treatment of the animals by the test compounds were started fourteen days after injection of the adjuvant when arthritis developed sufficiently accompanying edema and erythema in paws. Each compound was orally given to animals daily for ten days. […] Phenylbutazone was used as the reference drug.
(§3) Evaluations were made using the following parameters.
(2) Relative reduction in edema of the hind paws.

SMILES	Relative volume ratio of swelling in hind paws, average, 6 days
CCCCc1ccc(C(=O)c2ccccc2F)cc1 [Active ingredient No. 8, 4-n-butyl-2'-fluorobenzophenone]	0.74
CCCCC1C(=O)N(c2ccccc2)N(c2ccccc2)C1=O [Phenylbutazone, reference compound]	0.75

Same assay, conditions: 50 mg/kg/day oral, 10 days

SMILES	Relative volume ratio of swelling in hind paws, average, 10 days
CCCCc1ccc(C(=O)c2ccccc2F)cc1 [Active ingredient No. 8, 4-n-butyl-2'-fluorobenzophenone]	0.76
CCCCC1C(=O)N(c2ccccc2)N(c2ccccc2)C1=O [Phenylbutazone, reference compound]	0.75

Same assay, conditions: 100 mg/kg/day oral, 6 days

SMILES	Relative volume ratio of swelling in hind paws, average, 6 days
CCCCc1ccc(C(=O)c2ccccc2F)cc1 [Active ingredient No. 8, 4-n-butyl-2'-fluorobenzophenone]	0.78
CCCCc1ccc(C(=O)c2ccccc2)cc1 [Active ingredient No. 19, 4-n-butyl benzophenone]	0.97

Same assay, conditions: 100 mg/kg/day oral, 10 days

SMILES	Relative volume ratio of swelling in hind paws, average, 10 days
CCCCc1ccc(C(=O)c2ccccc2F)cc1 [Active ingredient No. 8, 4-n-butyl-2'-fluorobenzophenone]	0.73
CCCCc1ccc(C(=O)c2ccccc2)cc1 [Active ingredient No. 19, 4-n-butyl benzophenone]	1.02

Same assay, conditions: 200 mg/kg/day oral, 6 days

SMILES	Relative volume ratio of swelling in hind paws, average, 6 days
CCCCc1ccc(C(=O)c2ccccc2)cc1 [Active ingredient No. 19, 4-n-butyl benzophenone]	0.76

Same assay, conditions: 200 mg/kg/day oral, 10 days

SMILES	Relative volume ratio of swelling in hind paws, average, 10 days
CCCCc1ccc(C(=O)c2ccccc2)cc1 [Active ingredient No. 19, 4-n-butyl benzophenone]	0.75

System: hind paws of male rats
Assay: Anti-inflammatory effect: acute carragheenin edema method
Assay type: in vivo
Details: Rattus norvegicus; 100 mg/kg oral, carragheenin edema, male rats (Table 2); read-out: Anti-inf.: edema inhibition rate
Experimental: The edema was induced by subcutaneous injection of 1% carragheenin suspension in saline to the hind paws of male rats weighting 150 to 180 g. Each sample was orally given at the dosage of 100 mg/kg just before the inoculation of carragheenin.

SMILES	inhibition in vivo at 100 mg/kg
CCCc1ccc(C(=O)c2ccc(CCC)cc2)cc1 [compound 110]	17%
CCCCCc1ccc(C(=O)c2ccc(CCCCC)cc2)cc1 [compound 111]	20.6%
CCCc1ccc(C(=O)c2ccc(CC)cc2)cc1 [compound 112]	14.1%
O=C(c1ccccc1)c1ccccc1C(=O)c1ccccc1 [compound 113]	38.7%
O=C(c1ccc(F)cc1)c1ccc(F)cc1 [compound 114]	33.2%
O=C(c1ccc(F)cc1)c1ccccc1Cl [compound 115]	14.5%

Same assay, conditions: rat, in vivo

SMILES	anti-inflammatory effect, inhibition rate (ED50), in words
CCCCc1ccc(C(=O)c2ccccc2F)cc1 [Active ingredient No. 8, 4-n-butyl-2'-fluorobenzophenone]	especially high inhibition rate (ED50)
CCCCc1ccc(C(=O)c2ccccc2)cc1 [Active ingredient No. 19, 4-n-butyl benzophenone]	especially high inhibition rate (ED50)

System: male mice
Assay: Analgesic effect: painful stretchings following intraperitoneal 0.7% acetic acid
Details: Mus musculus, po, read-out: Analgesic: percentage diminition of times of painful stretching
Experimental: Each sample was orally administered in the dosage of 100 mg/kg before injection of acetic acid.

SMILES	inhibition in vivo at 100 mg/kg
CCCc1ccc(C(=O)c2ccc(CCC)cc2)cc1 [compound 110]	10.5%
CCCCCc1ccc(C(=O)c2ccc(CCCCC)cc2)cc1 [compound 111]	11.3%
CCCc1ccc(C(=O)c2ccc(CC)cc2)cc1 [compound 112]	6.7%
O=C(c1ccccc1)c1ccccc1C(=O)c1ccccc1 [compound 113]	14.5%
O=C(c1ccc(F)cc1)c1ccc(F)cc1 [compound 114]	18.3%
O=C(c1ccc(F)cc1)c1ccccc1Cl [compound 115]	11.8%

System: platelet
Assay: Blood platelet aggregation inhibiting effect (collagen-induced)
Assay type: cell-based, rabbits
Details: Oryctolagus cuniculus, Platelet; 10^-4 mole, collagen inducer, rabbit PRP; read-out: Blood platelet agg. inh.: percentage inhibition of platelet aggregation
From the text: Male rabbits (Japan original white strain 3.3 to 3.6 kg) were anesthetized with Thiopental sodium and blood was sampled from the carotid artery.

SMILES	inhibition at 100 µM
CCCc1ccc(C(=O)c2ccc(CCC)cc2)cc1 [compound 110]	20.5%
CCCCCc1ccc(C(=O)c2ccc(CCCCC)cc2)cc1 [compound 111]	10.3%
CCCc1ccc(C(=O)c2ccc(CC)cc2)cc1 [compound 112]	11.8%
O=C(c1ccccc1)c1ccccc1C(=O)c1ccccc1 [compound 113]	25.8%
O=C(c1ccc(F)cc1)c1ccc(F)cc1 [compound 114]	26.8%
O=C(c1ccc(F)cc1)c1ccccc1Cl [compound 115]	25.4%

System: not listed separately
Assay: Chronic inflammation (adjuvant-induced arthritis): body weight gain
Assay type: in vivo, female rats of Sprague Drawley strain
Details: 50 mg/kg/day oral, 0 days
Experimental: as §1, §2
The treatment of the animals by the test compounds were started fourteen days after injection of the adjuvant when arthritis developed sufficiently accompanying edema and erythema in paws. […] […] Phenylbutazone was used as the reference drug.
as §3

SMILES	Body weight gain, average, 0 days
CCCCc1ccc(C(=O)c2ccccc2F)cc1 [Active ingredient No. 8, 4-n-butyl-2'-fluorobenzophenone]	222.6
CCCCC1C(=O)N(c2ccccc2)N(c2ccccc2)C1=O [Phenylbutazone, reference compound]	215.6

Same assay, conditions: 50 mg/kg/day oral, 6 days

SMILES	Body weight gain, average, 6 days
CCCCc1ccc(C(=O)c2ccccc2F)cc1 [Active ingredient No. 8, 4-n-butyl-2'-fluorobenzophenone]	223.0
CCCCC1C(=O)N(c2ccccc2)N(c2ccccc2)C1=O [Phenylbutazone, reference compound]	207.7

Same assay, conditions: 50 mg/kg/day oral, 10 days

SMILES	Body weight gain, average, 10 days
CCCCc1ccc(C(=O)c2ccccc2F)cc1 [Active ingredient No. 8, 4-n-butyl-2'-fluorobenzophenone]	232.0
CCCCC1C(=O)N(c2ccccc2)N(c2ccccc2)C1=O [Phenylbutazone, reference compound]	214.3

Same assay, conditions: 100 mg/kg/day oral, 0 days

SMILES	Body weight gain, average, 0 days
CCCCc1ccc(C(=O)c2ccccc2F)cc1 [Active ingredient No. 8, 4-n-butyl-2'-fluorobenzophenone]	211.8
CCCCc1ccc(C(=O)c2ccccc2)cc1 [Active ingredient No. 19, 4-n-butyl benzophenone]	229.2

Same assay, conditions: 100 mg/kg/day oral, 6 days

SMILES	Body weight gain, average, 6 days
CCCCc1ccc(C(=O)c2ccccc2F)cc1 [Active ingredient No. 8, 4-n-butyl-2'-fluorobenzophenone]	205.8
CCCCc1ccc(C(=O)c2ccccc2)cc1 [Active ingredient No. 19, 4-n-butyl benzophenone]	217.5

Same assay, conditions: 100 mg/kg/day oral, 10 days

SMILES	Body weight gain, average, 10 days
CCCCc1ccc(C(=O)c2ccccc2F)cc1 [Active ingredient No. 8, 4-n-butyl-2'-fluorobenzophenone]	214.4
CCCCc1ccc(C(=O)c2ccccc2)cc1 [Active ingredient No. 19, 4-n-butyl benzophenone]	218.2

Same assay, conditions: 200 mg/kg/day oral, 0 days

SMILES	Body weight gain, average, 0 days
CCCCc1ccc(C(=O)c2ccccc2)cc1 [Active ingredient No. 19, 4-n-butyl benzophenone]	214.1

Same assay, conditions: 200 mg/kg/day oral, 6 days

SMILES	Body weight gain, average, 6 days
CCCCc1ccc(C(=O)c2ccccc2)cc1 [Active ingredient No. 19, 4-n-butyl benzophenone]	213.3

Same assay, conditions: 200 mg/kg/day oral, 10 days

SMILES	Body weight gain, average, 10 days
CCCCc1ccc(C(=O)c2ccccc2)cc1 [Active ingredient No. 19, 4-n-butyl benzophenone]	220.1
